Source: patent US10954210B2, “Crystal form of tipifarnib and preparation method and pharmaceutical composition thereof” (Hangzhou SoliPharma Co., Ltd., priority 2016, dated 2021)
“Also recorded” adds a separate entry of the source.

Key:
Type in all cases: physicochemical
[1] = Slurry experiment in water (stirred 3 days at room temperature, XRD); conditions: stirred in water at room temperature for 3 days, by XRD
Procedure: (§1) Instruments and characterization methods: • X-ray powder diffraction (XRPD): performed on Bruder D8 Advance diffractometer. The samples were tested at room temperature under the following conditions: scan range 3-40° 2θ, step size 0.02° 2θ, and speed 0.2 s/step.

[2] = Phase and chemical stability experiments (10 days storage, XRD and purity); conditions: for Form (10 days test results): by XRD; for crystalline form after storage / purity change after storage: 10 days at 60° C. dry condition and 40° C./75% RH condition
Procedure: as §1

[3] = Dynamic vapor sorption / isothermal sorption
Procedure: Dynamic vapor sorption data and isothermal sorption data were collected on TA Instruments Q5000 TGA. Method: place 1 mg to 10 mg sample into a platinum pan; the weight change of the sample during the change in relative humidity from 0% to 80% to 0% was measured.

SMILES | Test results: crystalline form after stirring in water [1] | Test results: crystalline form after stirring in water ([1]; listed as Tipifarnib Form A) | Purity (%) (10 days test results) ([2]; 40° C./75% RH) | Form (10 days test results) ([2]; 40° C./75% RH) | Purity (%) (10 days test results) ([2]; 60° C./drying) | Form (10 days test results) ([2]; 60° C./drying) | crystalline form after storage [2] | purity change after storage [2] | Test results: crystalline form after stirring in water ([1]; listed as Tipifarnib Form III) | Test results: crystalline form after stirring in water ([1]; listed as Tipifarnib Form IV) | Test results: crystalline form after stirring in water ([1]; listed as Tipifarnib Form II) | Test results: crystalline form after stirring in water ([1]; listed as Tipifamib Form I) | weight change (isothermal sorption plot) ([3]; between 20 to 80% RH) | hygroscopicity ([3]; isothermal sorption plot, 20 to 80% RH)
Cn1cncc1[C@@](N)(c1ccc(Cl)cc1)c1ccc2c(c1)c(-c1cccc(Cl)c1)cc(=O)n2C [Form A, (R)-6-(amino(4-chlorophenyl)(1-methyl-1H-imidazol-5-yl)methyl)-4-(3-chlorophenyl)-1-methyl-2(1H)-quinolinone, reference compound] | transformed to tipifanib Form I | Tipifarnib Form I |  |  |  |  |  |  |  |  |  |  |  | 
Cn1cncc1[C@@](N)(c1ccc(Cl)cc1)c1ccc2c(c1)c(-c1cccc(Cl)c1)cc(=O)n2C [Form III, (R)-6-(amino(4-chlorophenyl)(1-methyl-1H-imidazol-5-yl)methyl)-4-(3-chlorophenyl)-1-methyl-2(1H)-quinolinone] | remained unchanged |  | 99.80 | Tipifarnib Form III | 99.80 | Tipifarnib Form III | remained their original forms; also recorded: remained its original form | essentially did not decrease; also recorded: essentially did not change | Tipifarnib Form III |  |  |  |  | 
Cn1cncc1[C@@](N)(c1ccc(Cl)cc1)c1ccc2c(c1)c(-c1cccc(Cl)c1)cc(=O)n2C [Form IV, (R)-6-(amino(4-chlorophenyl)(1-methyl-1H-imidazol-5-yl)methyl)-4-(3-chlorophenyl)-1-methyl-2(1H)-quinolinone] | remained unchanged |  | 99.73 | Tipifarnib Form IV | 99.85 | Tipifarnib Form IV | remained their original forms; also recorded: remained its original form | essentially did not decrease; also recorded: essentially did not change |  | Tipifarnib Form IV |  |  |  | 
Cn1cncc1[C@@](N)(c1ccc(Cl)cc1)c1ccc2c(c1)c(-c1cccc(Cl)c1)cc(=O)n2C [Form II, (R)-6-(amino(4-chlorophenyl)(1-methyl-1H-imidazol-5-yl)methyl)-4-(3-chlorophenyl)-1-methyl-2(1H)-quinolinone] | remained unchanged |  | 99.86 | Tipifarnib Form II | 99.84 | Tipifarnib Form II | remained their original forms; also recorded: remained its original form | essentially did not decrease; also recorded: essentially did not change |  |  | Tipifarnib Form II |  |  | 
Cn1cncc1[C@@](N)(c1ccc(Cl)cc1)c1ccc2c(c1)c(-c1cccc(Cl)c1)cc(=O)n2C [Form I, (R)-6-(amino(4-chlorophenyl)(1-methyl-1H-imidazol-5-yl)methyl)-4-(3-chlorophenyl)-1-methyl-2(1H)-quinolinone] | remain unchanged |  | 99.61 | Tipifarnib Form I | 99.72 | Tipifarnib Form I | remained its original form; also recorded: remained their original forms | essentially did not change; also recorded: essentially did not decrease |  |  |  | Tipifamib Form I | less than 0.2% | not hygroscopic
